# Laboratory results from patent publication US20230365592A1 (Agios Pharmaceuticals, Inc., priority 2022, published 2023).
# Biological target: T1, human PAH with the R408W mutation (Homo sapiens, UniProt P00439, R408W)
# T1 construct: expressed in transfected cells
# T1 sequence (P00439 1-452 R408W): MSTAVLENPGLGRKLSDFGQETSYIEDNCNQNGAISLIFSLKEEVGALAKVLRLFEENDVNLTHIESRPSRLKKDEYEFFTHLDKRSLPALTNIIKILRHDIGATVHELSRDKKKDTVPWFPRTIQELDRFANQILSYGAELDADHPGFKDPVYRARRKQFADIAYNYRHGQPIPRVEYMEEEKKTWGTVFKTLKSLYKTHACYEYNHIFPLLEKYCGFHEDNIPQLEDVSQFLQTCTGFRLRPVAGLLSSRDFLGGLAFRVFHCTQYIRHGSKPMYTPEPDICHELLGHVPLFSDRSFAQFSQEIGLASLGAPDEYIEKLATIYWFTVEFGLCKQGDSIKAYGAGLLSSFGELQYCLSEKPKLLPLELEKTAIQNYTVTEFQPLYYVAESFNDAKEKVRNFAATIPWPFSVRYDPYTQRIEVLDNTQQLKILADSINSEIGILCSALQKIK
# Experiment: Cell Based Phenylalanine Flux Assay;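 also: after compound treatment, cells received sepiapterin plus isotope-labelled Phenylalanine for 4 hours, then labelled Tyrosine in the medium was quantified, 10-point 2-fold dilution series run in duplicate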
# Details: A375 cells expressing human R408W PAH; 24 hrs compound incubation; 13C-Tyrosine by LC-MS; average where tested multiple times; read-out: AC50
row,AC50,Structure (SMILES)
1,> 5000 nM,"Cc1ccc2c(C(=O)N3CCc4[nH]cnc4[C@@H]3c3cc4c(C(F)(F)F)cccn4n3)cnn2c1 [Example 1667, (R)-(6-methylpyrazolo[1,5-a]pyridin-3-yl)(4-(4-(trifluoromethyl)pyrazolo[1,5-a]pyridin-2-yl)-6,7-dihydro-1H-imidazo[4,5-c]pyridin-5(4H)-yl)methanone]"
2,> 5000 nM,"Cc1ccc2c(C(=O)N3CCc4[nH]cnc4[C@@H]3c3cc4c(C)cccn4n3)cnn2c1 [Example 1669, (R)-(4-(4-methylpyrazolo[1,5-a]pyridin-2-yl)-6,7-dihydro-1H-imidazo[4,5-c]pyridin-5(4H)-yl)(6-methylpyrazolo[1,5-a]pyridin-3-yl)methanone]"
3,500 to 1000 nM,"Cc1ccc2c(C(=O)N3CCc4[nH]cnc4[C@H]3c3cc4c(F)cccn4n3)cnn2c1 [Example 1670, (S)-(4-(4-fluoropyrazolo[1,5-a]pyridin-2-yl)-6,7-dihydro-1H-imidazo[4,5-c]pyridin-5(4H)-yl)(6-methylpyrazolo[1,5-a]pyridin-3-yl)methanone]"
4,< 500 nM,"O=C(c1cnn2cc(C3CC3)ccc12)N1CCc2[nH]cnc2[C@H]1c1cc2c(F)cccn2n1 [Example 1672, (S)-(6-cyclopropylpyrazolo[1,5-a]pyridin-3-yl)(4-(4-fluoropyrazolo[1,5-a]pyridin-2-yl)-6,7-dihydro-1H-imidazo[4,5-c]pyridin-5(4H)-yl)methanone]"
5,500 to 1000 nM,"COc1ccc2c(C(=O)N3CCc4[nH]cnc4[C@H]3c3cc4c(C(F)F)cccn4n3)cnn2c1 [Example 1676, (S)-(4-(4-(difluoromethyl)pyrazolo[1,5-a]pyridin-2-yl)-6,7-dihydro-1H-imidazo[4,5-c]pyridin-5(4H)-yl)(6-methoxypyrazolo[1,5-a]pyridin-3-yl)methanone]"
6,> 5000 nM,"COc1ccc2c(C(=O)N3CCc4[nH]cnc4[C@@H]3c3cc4c(C(F)F)cccn4n3)cnn2c1 [Example 1677, (R)-(4-(4-(difluoromethyl)pyrazolo[1,5-a]pyridin-2-yl)-6,7-dihydro-1H-imidazo[4,5-c]pyridin-5(4H)-yl)(6-methoxypyrazolo[1,5-a]pyridin-3-yl)methanone]"
7,500 to 1000 nM,"COc1ccc2c(C(=O)N3CCc4[nH]cnc4[C@H]3c3cc4c(F)cccn4n3)cnn2c1 [Example 1696, (S)-(4-(4-fluoropyrazolo[1,5-a]pyridin-2-yl)-6,7-dihydro-1H-imidazo[4,5-c]pyridin-5(4H)-yl)(6-methoxypyrazolo[1,5-a]pyridin-3-yl)methanone]"
8,< 500 nM,"COc1ccc2c(C(=O)N3CCc4[nH]cnc4[C@H]3c3cc4c(Cl)cccn4n3)cnn2c1 [Example 1698, (S)-(4-(4-chloropyrazolo[1,5-a]pyridin-2-yl)-6,7-dihydro-1H-imidazo[4,5-c]pyridin-5(4H)-yl)(6-methoxypyrazolo[1,5-a]pyridin-3-yl)methanone]"
9,> 5000 nM,"COc1ccc2c(C(=O)N3CCc4[nH]cnc4[C@@H]3c3cc4c(Cl)cccn4n3)cnn2c1 [Example 1699, (R)-(4-(4-chloropyrazolo[1,5-a]pyridin-2-yl)-6,7-dihydro-1H-imidazo[4,5-c]pyridin-5(4H)-yl)(6-methoxypyrazolo[1,5-a]pyridin-3-yl)methanone]"

# Further lines, the compound ahead of its results:
row,Structure (SMILES),AC50
1,"COc1ccc2c(C(=O)N3CCc4[nH]cnc4[C@H]3c3cc4c(C(F)(F)F)cccn4n3)cnn2c1 [Example 1674, (S)-(6-methoxypyrazolo[1,5-a]pyridin-3-yl)(4-(4-(trifluoromethyl)pyrazolo[1,5-a]pyridin-2-yl)-6,7-dihydro-1H-imidazo[4,5-c]pyridin-5(4H)-yl)methanone]",500 to 1000 nM
2,"O=C(c1nnc(-c2ncccc2F)o1)N1CCc2[nH]cnc2[C@@H]1c1cc2c(OC(F)(F)F)cccn2n1 [Example 1678, (R)-(5-(3-fluoropyridin-2-yl)-1,3,4-oxadiazol-2-yl)(4-(4-(trifluoromethoxy)pyrazolo[1,5-a]pyridin-2-yl)-6,7-dihydro-1H-imidazo[4,5-c]pyridin-5(4H)-yl)methanone]",> 5000 nM
3,"O=C(c1nnc(-c2ncccc2F)o1)N1CCc2[nH]cnc2[C@H]1c1cc2c(OC(F)(F)F)cccn2n1 [Example 1679, (S)-(5-(3-fluoropyridin-2-yl)-1,3,4-oxadiazol-2-yl)(4-(4-(trifluoromethoxy)pyrazolo[1,5-a]pyridin-2-yl)-6,7-dihydro-1H-imidazo[4,5-c]pyridin-5(4H)-yl)methanone]",< 500 nM
4,"O=C(c1nnc(-c2cnccn2)o1)N1CCc2[nH]cnc2[C@H]1c1cc2c(OC(F)(F)F)cccn2n1 [Example 1680, (S)-(5-(pyrazin-2-yl)-1,3,4-oxadiazol-2-yl)(4-(4-(trifluoromethoxy)pyrazolo[1,5-a]pyridin-2-yl)-6,7-dihydro-1H-imidazo[4,5-c]pyridin-5(4H)-yl)methanone]",500 to 1000 nM
5,"Cn1cc(-c2nnc(C(=O)N3CCc4[nH]cnc4[C@H]3c3cc4c(OC(F)(F)F)cccn4n3)o2)cn1 [Example 1682, (S)-(5-(1-methyl-1H-pyrazol-4-yl)-1,3,4-oxadiazol-2-yl)(4-(4-(trifluoromethoxy)pyrazolo[1,5-a]pyridin-2-yl)-6,7-dihydro-1H-imidazo[4,5-c]pyridin-5(4H)-yl)methanone]",< 500 nM
6,"CC(C)(C)c1nnc(C(=O)N2CCc3[nH]cnc3[C@H]2c2cc3c(OC(F)F)cccn3n2)o1 [Example 1687, (S)-(5-(tert-butyl)-1,3,4-oxadiazol-2-yl)(4-(4-(difluoromethoxy)pyrazolo[1,5-a]pyridin-2-yl)-6,7-dihydro-1H-imidazo[4,5-c]pyridin-5(4H)-yl)methanone]",500 to 1000 nM
7,"O=C(c1nnc(-c2ccccn2)o1)N1CCc2[nH]cnc2[C@H]1c1cc2c(OC(F)F)cccn2n1 [Example 1689, (S)-(4-(4-(difluoromethoxy)pyrazolo[1,5-a]pyridin-2-yl)-6,7-dihydro-1H-imidazo[4,5-c]pyridin-5(4H)-yl)(5-(pyridin-2-yl)-1,3,4-oxadiazol-2-yl)methanone]",< 500 nM
8,"Cc1cccc2cc([C@@H]3c4nc[nH]c4CCN3C(=O)c3cnn4cc(CN(C)C)ccc34)nn12 [Example 1690, (S)-(6-((dimethylamino)methyl)pyrazolo[1,5-a]pyridin-3-yl)(4-(7-methylpyrazolo[1,5-a]pyridin-2-yl)-6,7-dihydro-1H-imidazo[4,5-c]pyridin-5(4H)-yl)methanone]",500 to 1000 nM
9,"Cc1cccc2cc([C@H]3c4nc[nH]c4CCN3C(=O)c3cnn4cc(CN(C)C)ccc34)nn12 [Example 1691, (R)-(6-((dimethylamino)methyl)pyrazolo[1,5-a]pyridin-3-yl)(4-(7-methylpyrazolo[1,5-a]pyridin-2-yl)-6,7-dihydro-1H-imidazo[4,5-c]pyridin-5(4H)-yl)methanone]",> 5000 nM
10,"FC(F)(F)c1cccn2nc([C@@H]3c4nc[nH]c4CCN3c3ncccn3)cc12 [Example 1692, (S)-5-(pyrimidin-2-yl)-4-(4-(trifluoromethyl)pyrazolo[1,5-a]pyridin-2-yl)-4,5,6,7-tetrahydro-1H-imidazo[4,5-c]pyridine]",< 500 nM
11,"Cn1ccc(-c2nnc(C(=O)N3CCc4[nH]cnc4[C@H]3c3cc4c(OC(F)(F)F)cccn4n3)o2)n1 [Example 1702, (S)-(5-(1-methyl-1H-pyrazol-3-yl)-1,3,4-oxadiazol-2-yl)(4-(4-(trifluoromethoxy)pyrazolo[1,5-a]pyridin-2-yl)-6,7-dihydro-1H-imidazo[4,5-c]pyridin-5(4H)-yl)methanone]",< 500 nM
